By EC50 is commonly meant the concentration needed to bring the measured effect to its halfway point. In general, Emax refers to the size of the effect at its maximum, as opposed to the concentration needed.

We go through 21 compounds from US11840541B2 (priority 2014, dated 2023).

Where two headings read alike, the source gives them in different places.

What all share (assay): cell-based
The target of one test is T1, Human KOR (Homo sapiens, UniProt P41145).
T1 construct: expressed in transfected cells; host or cells: HEK-293T
T1 sequence (P41145 whole entry): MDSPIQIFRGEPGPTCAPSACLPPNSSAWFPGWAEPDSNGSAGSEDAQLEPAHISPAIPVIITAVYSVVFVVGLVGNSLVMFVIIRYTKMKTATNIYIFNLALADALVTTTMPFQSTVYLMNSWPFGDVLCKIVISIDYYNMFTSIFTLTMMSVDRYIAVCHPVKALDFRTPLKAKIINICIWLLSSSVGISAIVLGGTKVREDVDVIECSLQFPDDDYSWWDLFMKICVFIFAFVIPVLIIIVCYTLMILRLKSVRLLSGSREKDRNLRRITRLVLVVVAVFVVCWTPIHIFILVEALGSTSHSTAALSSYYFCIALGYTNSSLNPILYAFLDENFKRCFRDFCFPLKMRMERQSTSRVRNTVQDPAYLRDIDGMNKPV

The target of the next test is T2, Human DOR (Homo sapiens, UniProt P41143).
T2 construct: expressed in transfected cells; host or cells: HEK-293T
T2 sequence (P41143 whole entry): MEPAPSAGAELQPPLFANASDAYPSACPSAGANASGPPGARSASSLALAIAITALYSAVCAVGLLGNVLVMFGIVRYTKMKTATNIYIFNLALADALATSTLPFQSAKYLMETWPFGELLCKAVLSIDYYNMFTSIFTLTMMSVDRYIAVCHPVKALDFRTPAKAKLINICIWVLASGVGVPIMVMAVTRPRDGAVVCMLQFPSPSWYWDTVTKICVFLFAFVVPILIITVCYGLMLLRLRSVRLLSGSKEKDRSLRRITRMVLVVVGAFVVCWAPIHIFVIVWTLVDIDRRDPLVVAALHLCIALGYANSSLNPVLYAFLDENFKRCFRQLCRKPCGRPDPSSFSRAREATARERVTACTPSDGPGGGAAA

The target in the next test is T3, Human MOR (Homo sapiens, UniProt P35372).
T3 construct: expressed in transfected cells; host or cells: HEK-293T
T3 sequence (P35372 whole entry): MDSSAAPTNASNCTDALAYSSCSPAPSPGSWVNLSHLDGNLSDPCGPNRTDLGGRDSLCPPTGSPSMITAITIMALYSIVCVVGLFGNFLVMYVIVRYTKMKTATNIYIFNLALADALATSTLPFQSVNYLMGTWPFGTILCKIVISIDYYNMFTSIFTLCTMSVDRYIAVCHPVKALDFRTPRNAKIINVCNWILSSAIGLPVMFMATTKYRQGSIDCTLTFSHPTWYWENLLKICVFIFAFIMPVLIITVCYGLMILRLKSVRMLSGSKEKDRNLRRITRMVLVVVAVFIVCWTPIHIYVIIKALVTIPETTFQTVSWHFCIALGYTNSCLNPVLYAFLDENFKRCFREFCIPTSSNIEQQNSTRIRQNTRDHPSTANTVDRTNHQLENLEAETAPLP

Where [1] appears, read: read-out: EC50 at indicated opioid receptor, Human DOR.
The mark [2] stands for this setting: EC50 at indicated opioid receptor, Human MOR.
Setting [3] is: EC50 at indicated opioid receptor, Human KOR.
The mark [4] stands for this setting: EC50 at indicated opioid receptor, Human DOR.
The mark [5] stands for this setting: EC50, induced BRET signal, Human KOR.
[6] abbreviates: EC50, induced BRET signal, Human DOR.
Setting [7] is: EC50, induced BRET signal, Human MOR.

Consider `CCC1CC2CC3c4oc5ccc(OC)cc5c4CCN(C2)C13` (single isomer, unassigned) [Compound 34c], for which the EC50 on Human KOR (read-out: EC50 at indicated opioid receptor, Human KOR) was above 10 µM; on Human DOR (setting [1]), above 100 µM; at Human MOR (setting [2]), above 10 µM.
As for `CCC1CC2CC3c4oc5ccc(OC)cc5c4CCN(C2)C13` (single isomer, unassigned) [Compound 34d], the EC50 at Human KOR (setting [3]) is above 10 µM; at Human DOR (setting [4]) it was above 100 µM; on Human MOR (setting [2]), above 100 µM.
Turning to `CCC1CC2(C)CC3c4oc5ccc(O)cc5c4CCN(C2)C13` (single isomer, unassigned) [Compound 60b], the EC50 was below 10 µM at Human KOR (read-out: EC50, Human KOR); below 10 µM on Human DOR (EC50, Human DOR); below 10 µM at Human MOR (read-out: EC50, Human MOR).
`CCC1CC2(C)CC3c4oc5ccc(O)cc5c4CCN(C2)C13` (single isomer, unassigned) [Compound 60c]: the EC50 is below 10 µM at Human KOR (EC50, Human KOR); above 10 µM at Human DOR (EC50, Human DOR); below 10 µM on Human MOR (EC50, Human MOR).
In the case of `CCC1CC2CC3c4oc5ccc(O)cc5c4C[C@H](C)N(C2)C13` (single isomer, unassigned) [α-exo-52e], the Emax at Human KOR (read-out: Emax in parentheses, Human KOR) is 88%; at Human DOR (read-out: Emax in parentheses, Human DOR) it was 98%. Further, the “EC50 (μM) with Emax in parentheses, Human MOR” value on Human MOR is 0.40 μM ± 0.056 (98%).
Regarding `CCC1CC2CC3c4oc5ccc(O)cc5c4C[C@H](C)N(C2)C13` (single isomer, unassigned) [α-exo-52f], at Human KOR, the “EC50 with Emax in parentheses” value is 0.14 μM ± 0.006 (72%). In addition, the EC50 on Human DOR (setting [4]) is above 100 µM. Further, the “EC50 (μM) with Emax in parentheses, Human MOR” value on Human MOR is recorded as 0.48 μM ± 0.20 (50%).
`CCC1CC2CC3c4oc5ccccc5c4CCN(C2)C13` (stereo not drawn) [Compound 34a, 7-ethyl-6,6a,7,8,9,10,12,13-octahydro-6,9-methanobenzofuro[2,3-d] pyrido[1,2-a]azepine]: the EC50 on Human KOR (setting [3]) is above 10 µM; at Human DOR (setting [4]), above 100 µM; on Human MOR (setting [2]), above 100 µM.
Turning to `CCCC1CC2CC3c4oc5ccc(OC)cc5c4CCN(C2)C13` (stereo not drawn) [Compound 34e], the EC50 was above 100 µM on Human KOR (setting [3]), above 100 µM on Human DOR (setting [4]) and above 10 µM at Human MOR (setting [2]).
Regarding `CCCC1CC2CC3c4oc5ccc(OC)cc5c4CCN(C2)C13` (stereo not drawn) [Compound 34f], the EC50 was above 10 µM at Human KOR (setting [3]), above 100 µM at Human DOR (setting [1]) and above 100 µM at Human MOR (setting [2]).
On to `COc1ccc2oc3c(c2c1)CCN1CC2CCC1C3C2` (stereo not drawn) [Compound 34h], for which the EC50 at Human KOR (setting [3]) was above 10 µM; at Human DOR (setting [4]), above 100 µM; at Human MOR (setting [2]), above 100 µM.
For `CCCCC1CC2CC3c4oc5ccc(OC)cc5c4CCN(C2)C13` (stereo not drawn) [Compound 34i], the values for the EC50 at Human KOR (setting [3]), at Human DOR (setting [4]) and at Human MOR (setting [2]) were above 10 µM, above 100 µM and above 10 µM, respectively.
In the case of `CCC1CC2CC3c4oc5ccc(F)cc5c4CCN(C2)C13` (stereo not drawn) [Compound 34j], the results for the EC50 at Human KOR (setting [3]), at Human DOR (setting [4]) and on Human MOR (setting [2]) were above 10 µM, above 100 µM and above 10 µM, respectively.
Turning to `CCC1CC2CC3c4oc5cc(OC)ccc5c4CCN(C2)C13` (stereo not drawn) [Compound 34k], the EC50 on Human KOR (setting [3]) is below 10 µM; on Human DOR (setting [4]), above 10 µM; on Human MOR (setting [2]) it was below 10 µM.
Consider `CCC1CC2CC3c4oc5cc(F)c(OC)cc5c4CCN(C2)C13` (stereo not drawn) [Compound 34l], for which the figures for the EC50 on Human KOR (setting [3]), at Human DOR (setting [4]) and on Human MOR (setting [2]) were above 10 µM, above 100 µM and above 100 µM, respectively.
Turning to `COCC1CC2CC3c4oc5ccc(OC)cc5c4CCN(C2)C13` (stereo not drawn) [Compound 34m], the EC50 on Human KOR (setting [3]), at Human DOR (setting [4]) and on Human MOR (setting [2]) was above 10 µM in each case.
In the case of `COc1ccc2oc3c(c2c1)CCN1CC2CC(c4ccccc4)C1C3C2` (stereo not drawn) [Compound 34n], the EC50 was above 10 µM on Human KOR (setting [3]), above 100 µM at Human DOR (setting [4]) and above 100 µM on Human MOR (setting [2]).
Take `CCC1CC2CC3c4sc5ccccc5c4CCN(C2)C13` (stereo not drawn) [Compound 34q, 7-ethyl-6,6a,7,8,9,10,12,13-octahydro-6,9-methanobenzo[4,5] thieno[2,3-d]pyrido[1,2-a]azepine]: the EC50 is above 10 µM on Human KOR (setting [3]), above 100 µM on Human DOR (setting [4]) and above 100 µM on Human MOR (setting [2]).
Regarding `CCC1CC2CC3c4sc5ccc(OC)cc5c4CCN(C2)C13` (stereo not drawn) [Compound 34r], the EC50 on Human KOR (setting [3]) is above 10 µM; at Human DOR (setting [4]) it was above 100 µM; at Human MOR (setting [2]), above 10 µM.
As to `CCC1CC2CC3c4oc5ccc(O)cc5c4CCN(C2)C13` (stereo not drawn) [Compound 35a], at Human KOR, the “agonist activity at KOR (in words)” value is reported as “full agonist”. Moreover, the EC50 on Human KOR (setting [5]) is 0.66 ± 0.13 µM; on Human KOR (setting [3]) it was below 10 µM; on Human DOR (setting [6]), 4.5 ± 1.2 µM; on Human DOR (setting [4]), below 10 µM; at Human MOR (setting [7]), 0.98 ± 0.14 µM; on Human MOR (setting [2]), below 10 µM. Also, the “agonist activity at DOR (in words)” value at Human DOR is given as “full agonist”. In addition, on Human MOR, the “agonist activity at MOR (in words)” value is recorded as “full agonist”.
For `CCCC1CC2CC3c4oc5ccc(O)cc5c4CCN(C2)C13` (stereo not drawn) [Compound 35c], the EC50 on Human KOR (setting [3]), on Human DOR (setting [4]) and at Human MOR (setting [2]) was below 10 µM in each case.
For `CCCC1CC2CC3c4oc5ccc(O)cc5c4CCN(C2)C13` (stereo not drawn) [Compound 35d], the “agonist activity at KOR (in words)” value on Human KOR is recorded as “agonist activity”. The EC50 at Human KOR (setting [5]) worked out at 0.297 ± 0.03 µM; at Human DOR (setting [6]), 5.7 ± 5.1 µM; at Human MOR (setting [7]), 0.922 ± 0.282 µM. Also, at Human DOR, the “agonist activity at DOR (in words)” value is recorded as “agonist activity”. Also, the “agonist activity at MOR (in words)” value on Human MOR is “agonist activity”.
